Reference: patent publication EP0079792A2, “Process for production of urease” (priority 1981, dated 1983)

B1: urease from Corynebacterium lilium ATCC 21644 (Corynebacterium glutamicum ATCC 13032) (protein)
chain: MSFEISRKQYTDLYGPTVGDSVRLADTELFLCVEKDYAAIGEEVAFGGGKVIRDGMGQNGTLVRDVDIPDTVITNVIVLDYTGVYKADVALRDGKIFRIGKAGNPNVMENVDIVIGVATDIIAGEGKILTAGGIDTHVHFLGTDQVNTALASGITTMIGGGTGPSQASMATTVTPGQWNTYNMLSAFEGMPMNFGILGKGHGSSKSPLAEQVRAGAIGLKIHEDWGATPSSINTALEVADDMDIQVALHSDTLNEAGFVEDTIEAIAGRVIHTFHTEGAGGGHAPDLIRVAALPNVLPASTNPTLPYTRNTVEEHLDMVMVAHHLNPDIPEDVAFADSRIRAETIAAEDVLHDMGIFSITSSDSQAMGRVGETITRTWQVADHMKRTRGSLTGDAPYNDNNRLRRFIAKYTINPAIAHGVDYVVGSVEEGKFADLVLWDPKFFGVKPDLVIKGGLMVNSLMGDSNGSIPTPQPRTLRNTWGAFGQAVSRSSITFLSQDAIDANVPDLLNLRKQIRGVRGVRNLTKRDMKLNAEMPDIRVDPETYQVFVNGELITSKPAETVPMARRYFLF

Experiments:
[1] = test system: urease from Arthrobacter parafineus ATCC 15591; experiment: Km determination, crude enzymatic solution (Example 2); type: biochemical
Procedure: The above reagents are mixed with each other and incubated at 37°C for 5 minutes. To the mixture is added 0.01 ml of an enzyme solution, the enzymatic activity of which is to be determined. The absorba^ncy at OD340nm (=E1) after one minute and that at OD340nm (=E2) after two minutes are recorded at 37°C on a spectrophotometer, respectively.
In this example, each of the strains identified in the following Table 1 is cultured in the same manner as described in Example 1 to obtain microbial cells. From the microbial cells, a crude enzymatic solution is prepared to culculate the enzymatic activity and to determine the Km value.

[2] = substrate: NC(N)=O; experiment: purified protein, by the assay type; conditions: other: phosphate buffer (pH 7.5), purified enzyme preparate of Example 1

| Molecule | Km [1] | Km [2] |
| --- | --- | --- |
| NC(N)=O [urea] | 20 mM |  |
| B1 |  | 20 mM |
